In ChEMBL document CHEMBL3507680, “University of Dundee, Gates Library screen for HepG2 cell viability” one finds cytotoxicity data, which are given here for 73 compounds.

This data set is described as follows: Human HepG2 cell viability assay in 384 well format. It is filed as toxicity, cell-based. The arrangement: dose 125 nL, time 70.5 hour; concentration not given beside the values. The note with it: HepG2 cells, read-out: Inhibition.
Consider `Cc1ccccc1CN1CCN(C(C)c2nc(C3CC3)no2)CC1` (stereo not drawn), for which the cytotoxicity at 70.5 h was 17%.
For the compound `Cc1cnn(CC2CN(Cc3csc(C(C)C)n3)CCO2)c1` (stereo not drawn), the cytotoxicity at 70.5 h turned out to be 20.8%.
As for `CCc1n[nH]c(C2CN(C(=O)c3cnn(CC)c3)CCO2)n1` (stereo not drawn), the figure is 19.6%.
`COc1ccc(C(=O)N2CCC(Nc3cccnn3)CC2)cn1`: the cytotoxicity at 70.5 h came out at 13.7%.
As for `CCc1n[nH]c(C2CN(C(=O)c3ccc(NC4CC4)nc3)CCO2)n1` (stereo not drawn), the figure is -7.92%.
To `Cc1cnn(CC2CCCN2C(=O)c2cc(O)nc3ccccc23)c1` (stereo not drawn) belongs -7.86%.
As for `COc1cc(CNCc2ccc(NC(=O)NC(C)C)cc2)cc(OC)c1`, the figure is 2.03%.
As for `CC(C)NC(=O)Nc1ccc(CNCc2cccc(OC(F)F)c2)cc1`, the cytotoxicity at 70.5 h is 29.1%.
To `COC(=O)c1cccn1C1CCN(CC(=O)NC2CCCCC2)CC1` belongs -8.68%; to `CN(C)c1ccc(C(=O)N2CCN(Cc3cscn3)CC2)cc1F`, -8.39%.
As for `Cc1cc(C)n(CC2CN(Cc3nc(-c4ccco4)no3)CCO2)n1` (stereo not drawn), the figure is 2.57%; as for `Cc1ccc(C#N)cc1NC(=O)NC1CCCN(c2ncccn2)C1` (stereo not drawn), -0.699%.
As for `c1ccc(C(OCCNC2CCc3ncnn3C2)c2ccccc2)cc1` (stereo not drawn), the figure is -5.27%; as for `Cc1cnn(CC2CCCN2C(=O)c2cc3c(F)cccc3[nH]2)c1` (stereo not drawn), 6.2%; as for `Cc1ccc(-c2cc(CN3CCOC(Cn4cncn4)C3)on2)cc1` (stereo not drawn), 47.8%.
On to `Cc1cnn(CC2CCCN2CC(=O)Nc2nc(C)cs2)c1` (stereo not drawn), for which the cytotoxicity at 70.5 h came out at 1.41%.
To `CCN(Cc1cccc2c1OCO2)C(=O)NC1CC1` belongs 8.97%.
To `Cc1cnn(CC2CCN(CC(O)COc3ccc(F)cc3)CC2)c1` (stereo not drawn) belongs 26.5%; to `COc1ccccc1OCC(=O)NS(=O)(=O)c1ccc(Br)s1`, -4.66%; to `CCCC(C)C(=O)N1CCC(n2cccc2C(=O)OC)CC1` (stereo not drawn), -2.08%.
With `COCCc1noc(CN2CCOC(Cn3nc(C)cc3C)C2)n1` (stereo not drawn), the cytotoxicity at 70.5 h turned out to be 2.63%.
To `CCc1cnc(CN2CCC(N(C)Cc3noc(C4CC4)n3)C2)o1` (stereo not drawn) belongs 23.8%; to `CN(CC(=O)N1CCCN(Cc2cscn2)CC1)c1cnccn1`, -5.45%.
As for `COCCc1noc(CN2CCCCC2Cn2nc(C)cc2C)n1` (stereo not drawn), the figure is -1.86%; as for `Cc1cnn(CC2CCCN2CC(=O)Nc2cc(C)nn2C)c1` (stereo not drawn), 9.7%.
To `Cc1ccc(N2CCCC(NCc3ccncc3)C2)nn1` (stereo not drawn) belongs 11.6%; to `O=C(COCC1CC1)N1CCCC(n2ccnc2)C1` (stereo not drawn), 5.1%; to `CCc1nccn1C1CCCN(C(=O)Cc2cn3ccccc3n2)C1` (stereo not drawn), -3.88%.
`Cc1ncc(CNCC2CCCN2c2cccnn2)s1` (stereo not drawn): the cytotoxicity at 70.5 h was -19.7%.
As for `CC(=O)N(Cc1noc(C)n1)C1CCN(Cc2ccncc2Cl)C1` (stereo not drawn), the figure is -4.45%; as for `CC(NC(=O)NCc1ccc(Cl)cc1)c1ccccn1` (stereo not drawn), -10.7%; as for `CNS(=O)(=O)c1cccc(CNC(=O)c2c(C)nn(C)c2C)c1`, -3.24%.
As for `CC(NC(=O)NCc1ccc(Cl)s1)c1ccccn1` (stereo not drawn), the figure is -20%.
To `CC(C)(C)C(=O)NCCc1ccn(-c2ccccc2)n1` belongs -17.1%; to `CC(C)c1nc(CCNC(=O)NCc2ccnc(N(C)C)c2)cs1`, -10.2%.
For `Cn1ccc(CN2CCC(COC3CCCC3)CC2)cc1=O`, the cytotoxicity at 70.5 h was -11%.
As for `O=C(CCN1CCOC(Cn2cccn2)C1)NC1CCCC1` (stereo not drawn), the figure is 17.5%; as for `Cc1cnn(CC2CCCN2C(=O)c2cnc3n[nH]c(C)c3c2)c1` (stereo not drawn), 15.1%; as for `Cc1nc(C2CCCN(C(=O)c3cnn(C(C)(C)C)c3)C2)no1` (stereo not drawn), 23.3%.
Turning to `Cc1ccc(CC(=O)N2CCCCC2c2nc(C)cs2)cn1` (stereo not drawn), the cytotoxicity at 70.5 h was -14.4%.
As for `Cc1nc(C2CCCN(C(=O)c3ccc(N4CCCC4)nc3)C2)no1` (stereo not drawn), the figure is 1.03%.
As for `Cc1cn2nc(N3CCCC3CC(C)(C)C)sc2n1` (stereo not drawn), the figure is -4.57%; as for `CCn1cc(C(=O)NCc2csc(Br)c2)cn1`, -11.6%; as for `CC(c1nc(C2CC2)no1)N1CCN(Cc2ccccc2F)CC1` (stereo not drawn), -6.67%.
To `Cc1ccc(N2CCCC(NCc3nc(C)c(C)o3)C2)nn1` (stereo not drawn) belongs -14.3%; to `Cc1cnn(C2CCCN(C(=O)CCCOc3cccc(F)c3)C2)c1` (stereo not drawn), 0.97%; to `Cc1cc(C(=O)N2CCCC(n3cncn3)C2)c(C)n1C1CC1` (stereo not drawn), -1.59%.
Take `Cc1cnn(CC2CCCN2Cc2nccn2C)c1` (stereo not drawn): the cytotoxicity at 70.5 h was determined as 13.6%.
To `COc1c(CNCc2ccc(CN(C)C)cc2)c(C)nn1C` belongs -4.98%.
To `COc1ccc(CN(C)CC2CCCN2c2cccnn2)cc1F` (stereo not drawn) belongs 44.2%.
For `CN(Cc1cccnc1)CC1CCCN1c1cccnn1` (stereo not drawn), the cytotoxicity at 70.5 h was determined as 13.1%.
Consider `CC(=O)N(C)c1nc(CN2CCOC(Cn3cc(C)cn3)C2)cs1` (stereo not drawn), for which the cytotoxicity at 70.5 h came to 13.6%.
As for `CCN1CCN(C2CCN(Cc3nc4ccccc4o3)CC2)C1=O`, the figure is -8.04%; as for `Cn1ccnc1CN1CCN(CC(O)c2ccco2)CC1` (stereo not drawn), -25.9%; as for `O=C(c1cc(F)ccc1F)C1CCN(C(=O)c2ccccn2)CC1`, -12.2%.
To `Cc1nc(CN2CCN(C(=O)c3cc(C4CC4)on3)CC2)cs1` belongs -14.7%.
To `Cc1cc(S(=O)(=O)NCc2cccc(C(=O)N3CCCC3)c2)c(C)s1` belongs -0.781%; to `O=C(CCc1ccccc1)N1CCC(N2CCNC2=O)CC1`, -8.47%; to `Cc1cnn(CC2CCCN2C(=O)c2nccc3ccccc23)c1` (stereo not drawn), -15.9%.
Consider `O=C(NCC(O)CN1CCc2ccccc2C1)Nc1cccnc1` (stereo not drawn), for which the cytotoxicity at 70.5 h was -17.4%.
Regarding `O=C(c1cccc(CNS(=O)(=O)c2ccccc2F)c1)N1CCCC1`, the cytotoxicity at 70.5 h was -16.2%.
To `Cc1cnn(CC2CCCCN2C(=O)c2ccnc(N(C)C)c2)c1` (stereo not drawn) belongs -17.7%; to `CC(C)c1nc(C2CCCN(C(=O)c3ccc4[nH]cnc4c3)C2)no1` (stereo not drawn), -18.2%.
As for `CCc1nc(C2CCCN(C(=O)c3ccc(OC(C)C)nc3)C2)no1` (stereo not drawn), the figure is 17.6%; as for `CC(C)c1nc(C2CCCN(C(=O)c3ccc4nccn4c3)C2)no1` (stereo not drawn), -3.59%.
As for `CCn1cc(NC(=O)NCC(O)CN2CCCCC2)cn1` (stereo not drawn), the figure is -14.9%; as for `CCc1nc(C2CCCN(C(=O)c3ccc4[nH]nnc4c3)C2)no1` (stereo not drawn), -11%.
For the compound `O=C(c1ccc(-n2cccn2)nc1)N1CCCN(c2cccnn2)CC1`, the cytotoxicity at 70.5 h is -14.8%.
To `O=C(c1ccn(-c2cccc(F)c2)n1)N1CCCC(n2cccn2)C1` (stereo not drawn) belongs -15.2%; to `COCc1nc(C(=O)N2CCCCC2Cn2cc(C)cn2)cs1` (stereo not drawn), 16.8%; to `Cc1nc(CN2CCN(C(=O)c3sccc3C3CC3)CC2)cs1`, -13%.
As for `CCn1c(C)nnc1CN(C)C1CCN(CCn2cccn2)C1` (stereo not drawn), the figure is 7.42%.
Take `COc1c(CNCc2ccc(C(=O)N(C)C)cc2)c(C)nn1C`: the cytotoxicity at 70.5 h came out at 0.637%.
